Source: US20260183295A1, “METHODS AND COMPOSITIONS FOR TREATING CANCER” (Onconova Therapeutics, Inc., priority 2022, published 2026)

Key:
[1] = system: PyMT cells; test: Annexin V/PI staining, apoptotic cells, 48 hours; type: cell-based, mouse; conditions: compared to Comparator 1 (5 μM) and Comparator 3 (1 μM)
[2] = system: Hs578t cells; test: Cancer cell growth, 48 hours; type: cell-based; conditions: 5 μM or 10 μM, compared to Comparator 1 (FIG. 1)
Experimental: At the end of 48 hours, growth of cells was measured using standard techniques.

[3] = system: MDA-MB-231 cells; test: MTT assay, 24 hours; type: cell-based
[4] = system: Caspase 3; test: Western blot, MDA-MB-231 cells, 24 hours; type: cell-based; conditions: 2.5, 5, 10 μM, versus Comparator 1, 2 and 4
[5] = system: MDA-MB-231; test: Cell viability after 72 hours treatment; type: cell-based; conditions: MDA-MB-231 (TNBC)
Experimental: (§1) The effects on the different treatment conditions on BUB 1 levels and PARP cleavage were also assessed. For both MNA-MB-231 cells, Compound 1 alone or with HCQ or SBI decreased BUB1 levels and cleaved PARP with […] decreases in cell viability observed for all treatments except Compound 1+SBI in MMA-MB-231 cells. The effects of Compound 1 with or without autophagy inhibitors was less pronounced in HCC-1937 cells.

[6] = system: HCC-1937; test: Cell viability after 72 hours treatment; type: cell-based; conditions: HCC-1937 (TNBC)
Experimental: as §1

[7] = system: MDA-MB-468; test: Cell viability after 72 hours treatment; type: cell-based; conditions: MDA-MB-468 (TNBC)
Experimental: as §1

[8] = target: T1, NUAK1 (Homo sapiens, UniProt O60285); test: NUAK1 CETSA; type: cell-based; set-up: endogenous in cells; host or cells: MDA-MB-231 (lysates and intact cells)
T1 sequence (O60285 1-661): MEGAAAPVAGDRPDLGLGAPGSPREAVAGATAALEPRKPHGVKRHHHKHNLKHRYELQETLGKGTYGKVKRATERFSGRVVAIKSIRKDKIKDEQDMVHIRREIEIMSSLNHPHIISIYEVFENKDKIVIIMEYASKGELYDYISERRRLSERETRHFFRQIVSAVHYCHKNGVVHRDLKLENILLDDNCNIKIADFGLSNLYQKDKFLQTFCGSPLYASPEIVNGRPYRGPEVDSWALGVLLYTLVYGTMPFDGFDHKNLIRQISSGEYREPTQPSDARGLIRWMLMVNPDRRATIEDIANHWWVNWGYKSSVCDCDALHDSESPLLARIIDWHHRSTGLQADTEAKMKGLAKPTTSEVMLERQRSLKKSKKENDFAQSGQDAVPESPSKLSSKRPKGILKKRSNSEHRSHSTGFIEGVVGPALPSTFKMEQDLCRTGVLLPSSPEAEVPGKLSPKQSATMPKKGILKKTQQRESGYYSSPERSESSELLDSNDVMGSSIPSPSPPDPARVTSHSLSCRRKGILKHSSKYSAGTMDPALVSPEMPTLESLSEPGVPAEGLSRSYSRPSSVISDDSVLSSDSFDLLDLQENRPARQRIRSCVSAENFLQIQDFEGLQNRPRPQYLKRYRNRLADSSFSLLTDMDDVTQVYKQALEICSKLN
Experimental: Following treatment, cell lysates were thermally treated in a thermal gradient profile across a temperature range. Following the thermal shift, cell lysates were spun by centrifuge to pellet aggregate protein and the supernatant withdrawn. The supernatant was then denatured in buffer and heated to denature, reduce, and alkylate the supernatant proteins. Following heating and cooling to room temperature, cold acetone was added to the supernatant samples and proteins precipitated.
TNBC MDA-MB-231 cells were grown at 37° C. in 5% CO2 and suspended in warm media and split into 4 equal volumes. […] Cells were incubated and then pelleted. Following pelleting, the cells were washed, resuspended, and heated in a thermal gradient. Following heating, the samples were flash frozen and lysed in lysis buffer, agitated by vortex, and sonicated prior to centrifugation. The supernatant was collected and denaturation buffer added. Cold acetone was then added to the cell samples, and protein collected by centrifugation. […]
The intact cell protein samples and lysate protein samples were then digested and labeled for mass spectrometry analysis according to the manufacturer's recommended protocols. Digested and labeled protein samples were analyzed by mass spectrometry proteomic analysis and the resulting protein targets were analyzed and plotted.

With `CN1CCN(c2ccc(Nc3ncc4cc(C#N)c(=O)n(C5CCCC5)c4n3)cc2)CC1` [Compound 1, 8-cyclopentyl-2-((4-(4-methylpiperazin-1-yl)phenyl)amino)-7-oxo-7,8-dihydropyrido[2,3-d]pyrimidine-6-carbonitrile] the “number of apoptotic cells (Annexin V/PI)” value [1] was “increased numbers of apoptotic cells”, the growth of cells [2] was “significantly inhibited” and the “cell viability (MTT)” value ([3]; 2.5 μM, 5 μM and 10 μM, compared to Comparator 1 and Comparator 2) was “decreases cell viability to a greater extent”. The “effect of zVAD-FMK on cell death, MTT assay” value ([3]; zVAD-FMK 20 μM (FIG. 25)) was “unaffected by zVAD-FMK treatment”, the “Caspase 3 levels” value [4] was “decreasing” and the “72 h-cell viability decrease” value [5] was 75%. For the same molecule, the “72 h-cell viability decrease” value [6] was 25%, the “72 h-cell viability decrease” value [7] was 80% and the CETSA [8] was “NEG”.
